These results are taken from ChEMBL document CHEMBL3797134, “Selectivity of 3-bromo-isoxazoline inhibitors between human and Plasmodium falciparum glyceraldehyde-3-phosphate dehydrogenases” (Bioorg Med Chem, 2016).

Usually inhibition stands for how much of the control response was suppressed. By Km is commonly meant the concentration of substrate that gives half-maximal velocity. The Vmax is the rate approached at saturating substrate.

Calls of active or inactive are those of the source. The rule behind the calls is not given here.

The target of data set [1] is Glyceraldehyde-3-phosphate dehydrogenase (Plasmodium falciparum) (UniProt Q8T6B1). Nature of the data set: Slow phase inhibition of recombinant His-tagged Plasmodium falciparum GAPDH expressed in Escherichia coli using sodium arseniate as substrate assessed as ratio of Kinact to Ki by Kitz-Wilson double reciprocal plot analysis.
The target in data set [2] is Glyceraldehyde-3-phosphate dehydrogenase (Homo sapiens) (UniProt P04406). Nature of the data set: Fast phase inhibition of recombinant N-terminal His-tagged human GAPDH expressed in Escherichia coli BL21 codonPlus (DE3)-RIL cells using sodium arseniate as substrate assessed as ratio of Kinact to Ki by Kitz-Wilson double reciprocal plot analysis.
Data set [3] shares this target. The data set can be described thus: Effect on dimer to tetramer equilibrium of recombinant N-terminal His-tagged human GAPDH expressed in Escherichia coli BL21 codonPlus (DE3)-RIL cells at 50 uM after 4 hrs by gel filtration method. For orientation: In gel filtration, larger molecules generally elute earlier.
Data set [4] has the same target. The data set can be described thus: Binding affinity to recombinant N-terminal His-tagged human GAPDH expressed in Escherichia coli BL21 codonPlus (DE3)-RIL cells assessed as remaining cysteine pKa at 300 uM after 4 hrs (reference value: 6).
The target is the same in data set [5]. Nature of the data set: Binding affinity to recombinant N-terminal His-tagged human GAPDH expressed in Escherichia coli BL21 codonPlus (DE3)-RIL cells assessed as decrease in reactive cysteine content at 50 uM after 4 hrs relative to control. On the set-up: scale not given: the % may be the effect or the level left.
Data set [6] has as its target Glyceraldehyde-3-phosphate dehydrogenase (Plasmodium falciparum) (UniProt Q8T6B1). The data set can be described thus: Inhibition of recombinant His-tagged Plasmodium falciparum GAPDH expressed in Escherichia coli using sodium arseniate as substrate at 50 to 300 uM.
The target in data set [7] is Glyceraldehyde-3-phosphate dehydrogenase (Homo sapiens) (UniProt P04406). The data set can be described thus: Inhibition of recombinant N-terminal His-tagged human GAPDH expressed in Escherichia coli BL21 codonPlus (DE3)-RIL cells using sodium arseniate as substrate at 10 to 300 uM.
Data set [8] addresses Glyceraldehyde-3-phosphate dehydrogenase (Plasmodium falciparum) (UniProt Q8T6B1). Nature of the data set: Fast phase inhibition of recombinant His-tagged Plasmodium falciparum GAPDH expressed in Escherichia coli using sodium arseniate as substrate assessed as ratio of Kinact to Ki by Kitz-Wilson double reciprocal plot analysis.
In data set [9] the test system is COc1ccc(C2CC(Br)=NO2)cc1. Nature of the data set: Binding affinity to recombinant N-terminal His-tagged human GAPDH expressed in Escherichia coli BL21 codonPlus (DE3)-RIL cells assessed as enzyme Km at 50 uM after 4 hrs by Michaelis-Menten plot analysis (reference value: 340+/- 5 uM).
The subject of data set [10] is COc1ccc(C2CC(Br)=NO2)cc1. The data set can be described thus: Binding affinity to recombinant N-terminal His-tagged human GAPDH expressed in Escherichia coli BL21 codonPlus (DE3)-RIL cells assessed as enzyme Vmax at 50 uM after 4 hrs by Michaelis-Menten plot analysis (reference value: 0.069 +/- 0.003 mM/min).

Glyceraldehyde-3-phosphate dehydrogenase (Plasmodium falciparum), sequence (Q8T6B1 as listed by the source): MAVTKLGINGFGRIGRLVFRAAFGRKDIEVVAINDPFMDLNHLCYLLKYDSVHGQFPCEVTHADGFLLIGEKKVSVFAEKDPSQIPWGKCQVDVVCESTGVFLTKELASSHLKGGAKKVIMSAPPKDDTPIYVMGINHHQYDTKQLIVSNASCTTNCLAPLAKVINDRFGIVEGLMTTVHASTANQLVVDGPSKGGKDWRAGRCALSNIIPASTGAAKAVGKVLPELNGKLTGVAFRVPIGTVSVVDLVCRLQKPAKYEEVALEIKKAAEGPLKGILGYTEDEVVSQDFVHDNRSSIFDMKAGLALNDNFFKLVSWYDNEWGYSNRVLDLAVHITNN
Glyceraldehyde-3-phosphate dehydrogenase (Homo sapiens), sequence (P04406 2-335 limits assumed): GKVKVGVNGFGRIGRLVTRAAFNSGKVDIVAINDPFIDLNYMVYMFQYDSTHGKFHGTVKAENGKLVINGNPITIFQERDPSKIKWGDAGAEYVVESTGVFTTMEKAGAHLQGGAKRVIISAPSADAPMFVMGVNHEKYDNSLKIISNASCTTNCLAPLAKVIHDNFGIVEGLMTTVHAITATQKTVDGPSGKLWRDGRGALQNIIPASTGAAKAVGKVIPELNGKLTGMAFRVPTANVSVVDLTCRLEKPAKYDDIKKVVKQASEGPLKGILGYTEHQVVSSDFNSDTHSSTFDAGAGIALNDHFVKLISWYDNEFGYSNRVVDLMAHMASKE
Glyceraldehyde-3-phosphate dehydrogenase (Homo sapiens), P04406, sequence (P04406 whole entry): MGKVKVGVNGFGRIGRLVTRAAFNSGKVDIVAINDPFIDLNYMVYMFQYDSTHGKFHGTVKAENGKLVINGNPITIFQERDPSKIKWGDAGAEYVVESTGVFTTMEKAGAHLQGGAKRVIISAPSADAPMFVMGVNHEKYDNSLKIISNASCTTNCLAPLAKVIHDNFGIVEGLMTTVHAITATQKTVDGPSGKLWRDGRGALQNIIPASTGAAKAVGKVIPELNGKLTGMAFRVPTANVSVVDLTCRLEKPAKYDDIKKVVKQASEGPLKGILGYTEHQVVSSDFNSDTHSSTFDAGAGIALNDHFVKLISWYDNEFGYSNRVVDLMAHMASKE

For the compound `COC(=O)[C@@H](N)[C@@H]1CC(Br)=NO1`, in [1], the Ratio is 10.7 s⁻¹ M⁻¹.
Turning to `COc1ccc(C2CC(Br)=NO2)cc1` (stereo unspecified), the Ratio is 142 s⁻¹ M⁻¹ in [2], 59.9 s⁻¹ M⁻¹ in data set [8] and 0.34 s⁻¹ M⁻¹ in [1]. For the same compound, the result in data set [3] was inactive. For the same compound, the pKa in data set [4] worked out at 6.3. The Activity in data set [5] amounted to 7.8%. Further, in data set [6], the inhibition worked out at 25%. Moreover, in data set [7], the inhibition result was “Active”.
Regarding “Glyceraldehyde-3-phosphate dehydrogenase (Homo sapiens), P04406”, in the data set on COc1ccc(C2CC(Br)=NO2)cc1 [9], the Michaelis-Menten constant (Km) came to 299 µM. Moreover, the Vmax in the data set on COc1ccc(C2CC(Br)=NO2)cc1 [10] was 0.051 mM/min.
